According to patent publication US9115145B2, “Tocotrienol derivatives and associated methods” (FIRST TECH INTERNATIONAL LIMITED, priority 2011, dated 2015):
Where two headings read alike, the source gives them in different places.

Legend:
[1] = system: leukemia and colon cancer cell lines; experiment: NCI screening at several concentrations (GI50, TGI, LC50); format: cell-based, human
Method: The human tumor cell lines of the cancer screening panel were grown in RPMI 1640 medium containing 5% fetal bovine serum and 2 mM L-glutamine. For a typical screening experiment, cells are inoculated into 96 well microtiter plates in 100 μL at plating densities ranging from 5000 to 40,000 cells/well depending on the doubling time of individual cell lines. After cell inoculation, the microtiter plates are incubated at 37° C., 5% CO2, 95% air and 100% relative humidity for 24 hours prior to addition of experimental drugs. After 24 hours, two plates of each cell line are fixed in situ with Trichloroacetic acid (“TCA”), to represent a measurement of the cell population for each cell line at the time of drug addition. Experimental drugs are solubilized in dimethyl sulfoxide at 400-fold the desired final maximum test concentration and stored frozen prior to use. At the time of drug addition, an aliquot of frozen concentrate is thawed and diluted to twice the desired final maximum test concentration with complete medium containing 50 ng/mL gentamicin. An aliquot of 100 μL of this drug dilution is added to the appropriate microtiter wells already containing 100 μL of medium, resulting in the required final drug concentrations. Following drug addition, the plates are incubated for an additional 48 h at 37° C., 5% CO2, 95% air, and 100% relative humidity. For adherent cells, the assay is terminated by the addition of cold TCA. Cells are fixed in situ by the gentle addition of 50 μL of cold 50% (w/v) TCA (final concentration, 10% TCA) and incubated for 60 min at 4° C. The supernatant is discarded, and the plates are washed five times with tap water and air dried. Sulforhodamine B (SRB) solution (100 μL) at 0.4% (w/v) in 1% acetic acid is added to each well, and plates are incubated for 10 min at room temperature. After staining, unbound dye is removed by washing five times with 1% acetic acid and the plates are air dried. Bound stain is subsequently solubilized with 10 mM trizma base, and the absorbance is read on an automated plate reader at a wavelength of 515 nm. For suspension cells, the methodology is the same except that the assay is terminated by fixing settled cells at the bottom of the wells by gently adding 50 μL of 80% TCA (final concentration, 16% TCA). FIGS. 37-74 indicate the growth inhibition effects of selected Compounds against a variety of cell lines based on the above described testing configuration. FIGS. 37-74 present the Growth percent for a given compound against the cell lines and both values and a bar chart of the difference between the mean growth percent and the growth percent which is an indication of the selectivity of the compound for that particular cell line. […]

[2] = system: MDA-MB-231 human breast cancer cell line; experiment: MTT assay of MDA-MB-231 cells; format: cell-based; details: Homo sapiens, media containing 5% fetal bovine serum
Method: (§1) MDA-MB-231 and MCF7 cells were plated at a density of 8×10^3 cells/well and 10^4 cells/well in 96-well culture plates, respectively. The compounds were fed in serum free media containing 5% and 1% fetal bovine serum for MDA-MB-231 and MCF7 cells, respectively.

[3] = system: MCF 10A non-tumorigenic mammary epithelial cells; experiment: MTT assay of MCF10A cells; format: cell-based, human; details: for IC50: Homo sapiens; for Selectivity index: IC50 for MCF 10A divided by IC50 for +SA cell line
Outline: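 MCF 10A non-tumorigenic human mammary epithelial cells were seeded at 10×10^4 cells/well and treated with compounds in serum-free medium, final DMSO below 0.1%. Viability was read by MTT, and IC50 came from non-linear regression. Selectivity index = MCF 10A IC50 ÷ +SA cell line IC50.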

[4] = system: MDA-MB-231 human breast cancer cells; experiment: Wound-healing assay (cell migration); format: cell-based; details: Homo sapiens; MDA-MB-231, wound-healing assay, dose response; read-out: IC50 antimigratory activity
Outline: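 Scratch wounds made in confluent (>95%) monolayers, then compounds added in fresh medium (5 μM in screening; concentration range in follow-up), DMSO as negative control, triplicate. After 24 h serum-starved at 37 °C, cells fixed and Diff-Quick stained. Migrated cells counted per 400× field (≥3 fields); IC50 from concentration range.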

[5] = system: MCF7 human breast cancer cell line; experiment: MTT assay of MCF7 cells; format: cell-based; details: Homo sapiens, media containing 1% fetal bovine serum
Method: as §1

[6] = system: 60 human tumor cell lines; experiment: NCI in vitro screening against 60 human cell lines, single concentration; format: cell-based; details: 10 μM dose; negative values indicate cytotoxicity
Method: Compounds selected from Compounds 3-44 were provided to the National Cancer Institute for in vitro screening against 60-human cell lines for their ability to inhibit the growth of tumor cells in a full panel representing nine different organs (blood, lung, colon, CNS, skin, ovary, kidney, prostate, and breast). The compounds were tested at a single concentration of 10 μM, and the percentages of growth inhibitions over the sixty tested cell lines were determined. Compounds showing the highest activity were chosen for secondary assays using five different compound concentrations.
The human tumor cell lines of the cancer screening panel were grown in RPMI 1640 medium containing 5% fetal bovine serum and 2 mM L-glutamine. For a typical screening experiment, cells are inoculated into 96 well microtiter plates in 100 μL at plating densities ranging from 5000 to 40,000 cells/well depending on the doubling time of individual cell lines. After cell inoculation, the microtiter plates are incubated at 37° C., 5% CO2, 95% air and 100% relative humidity for 24 hours prior to addition of experimental drugs. After 24 hours, two plates of each cell line are fixed in situ with Trichloroacetic acid (“TCA”), to represent a measurement of the cell population for each cell line at the time of drug addition. Experimental drugs are solubilized in dimethyl sulfoxide at 400-fold the desired final maximum test concentration and stored frozen prior to use. At the time of drug addition, an aliquot of frozen concentrate is thawed and diluted to twice the desired final maximum test concentration with complete medium containing 50 ng/mL gentamicin. An aliquot of 100 μL of this drug dilution is added to the appropriate microtiter wells already containing 100 μL of medium, resulting in the required final drug concentrations. Following drug addition, the plates are incubated for an additional 48 h at 37° C., 5% CO2, 95% air, and 100% relative humidity. For adherent cells, the assay is terminated by the addition of cold TCA. Cells are fixed in situ by the gentle addition of 50 μL of cold 50% (w/v) TCA (final concentration, 10% TCA) and incubated for 60 min at 4° C. The supernatant is discarded, and the plates are washed five times with tap water and air dried. Sulforhodamine B (SRB) solution (100 μL) at 0.4% (w/v) in 1% acetic acid is added to each well, and plates are incubated for 10 min at room temperature. After staining, unbound dye is removed by washing five times with 1% acetic acid and the plates are air dried. Bound stain is subsequently solubilized with 10 mM trizma base, and the absorbance is read on an automated plate reader at a wavelength of 515 nm. For suspension cells, the methodology is the same except that the assay is terminated by fixing settled cells at the bottom of the wells by gently adding 50 μL of 80% TCA (final concentration, 16% TCA). FIGS. 37-74 indicate the growth inhibition effects of selected Compounds against a variety of cell lines based on the above described testing configuration. FIGS. 37-74 present the Growth percent for a given compound against the cell lines and both values and a bar chart of the difference between the mean growth percent and the growth percent which is an indication of the selectivity of the compound for that particular cell line.

[7] = system: +SA mammary epithelial cells; experiment: MTT assay of +SA cells (antiproliferative activity); format: cell-based, mouse; details: described from FIG. 32 / text
Method: The antiproliferative activities of Compounds 3-44 against the highly metastatic malignant +SA mammary epithelial cells were evaluated by MTT assay. Materials for the assay were purchased from Sigma Chemical Company (St. Louis, Mo.) unless otherwise stated. The highly malignant +SA mouse mammary epithelial cell line was serially passaged at subconfluent cell density. The +SA mammary tumor cell line was derived from an adenocarcinoma that developed spontaneously in a BALB/c female mouse. +SA cells were maintained in serum-free defined medium consisting of Dulbecco's modified Eagle's medium (DMEM)/F12 containing 5 mg/mL bovine serum albumin (BSA), 10 […], 100 U/mL soybean trypsin inhibitor, 100 U/mL penicillin G, 0.1 mg/mL streptomycin, […], and 10 ng/mL epidermal growth factor. For subculturing, cells were rinsed twice with sterile Ca2+ and Mg2+-free phosphate buffered saline (PBS) and incubated in 0.05% trypsin containing 0.025% EDTA in PBS for 5 min at 37° C. The released cells were centrifuged, resuspended in fresh media and counted using hemocytometer. A stock solution of the compounds was prepared in DMSO. Once dissolved, this solution was added to a small volume of sterile 10% BSA in water and incubated overnight at 37° C. This solution conjugated to BSA was used to prepare various concentrations (0-40 μM) of tocotrienol analogs. DMSO was added to all treatment media such that the final DMSO concentration was the same in all treatment groups within a given experiment and was always less than 0.1%. For cytotoxic studies, cells were seeded at a density of 5×10^4 cells/well (+SA cells) or 1×10^5 cells/well (CL-S1 cells) (6 wells/group) in 24-well culture plates and allowed to grow in their respective control media. After 3 days incubation period (approximately 70% confluency), cells were divided equally into various treatment groups and exposed to their respective treatments for a 24 hours incubation period. Following the 24 hours treatment period, cell viability was measured using the MTT assay.
+SA Mammary epithelial cell viable number was determined by a 3-(4,5-dimethylthiazol-2yl)-2,5-diphenyl tetrazolium bromide (MTT) colorimetric assay. On the assay day, treatment medium was replaced with fresh control medium containing 0.42 mg/mL MTT, and the cells in 24-well plates were incubated at 37° C. for 4 hours. Afterward, the medium was removed, and the MTT crystals were dissolved in isopropyl alcohol (1 mL/well). The optical density of each sample was read at 570 nm on a microplate reader (SpectraCount, Packard BioScience Company), against a blank prepared from cell-free cultures. The number of cells/well was calculated against a standard curve prepared by plating various concentrations of cells, as determined by hemocytometer, at the start of each experiment.
Differences among the various treatment groups in +SA cell cytotoxic studies were determined by analysis of variance (ANOVA) followed by Dunnett's t-test. The difference of P<0.05 was considered to be statistically significant as compared with vehicle-treated controls unless separately described. Linear regression analysis of treatment effects on viable cell number in growth and cytotoxicity studies was used to determine the 50% growth inhibition concentration (IC50) for individual treatments.

[8] = MCF-10A, MCF10A cells, Table II, non-linear regression, read-out: MCF10A (IC50)
[9] = MCF 10A non-tumorigenic cells, Table I, read-out: IC50 MCF 10A

| Structure (SMILES) | GI50 [1] | IC50 [2] [µM] | IC50 [3, 8] [µM] | IC50 [3, 9] [µM] | Selectivity index [3] | IC50 [4] [µM] | IC50 [5] [µM] | mean percent growth across all 60 cell lines (mean 60) [6] | antiproliferative activity against +SA mammary tumor cells (in words) [7] |
| --- | --- | --- | --- | --- | --- | --- | --- | --- | --- |
| CC(C)=CCC/C(C)=C/CC/C(C)=C/CC[C@]1(C)CCc2c3c(cc(C)c2O1)OCN(C1CCN(Cc2ccccc2)CC1)C3 [Compound 8, (R)-2-(1-benzylpiperidin-4-yl)-6,8-dimethyl-8-((3E,7E)-4,8,12-trimethyltrideca-3,7,11-trienyl)-1,2,3,8,9,10-hexahydrochromeno[5,6-e][1,3]oxazine] | nanomolar |  |  |  |  |  |  |  |  |
| CC(C)=CCC/C(C)=C/CC/C(C)=C/CC[C@]1(C)CCc2c3c(cc(C)c2O1)OCN(CCCCCCCCO)C3 [Compound 40, 8-((R)-6,8-dimethyl-8-((3E,7E)-4,8,12-trimethyltrideca-3,7,11-trienyl)-9,10-dihydrochromeno[5,6-e][1,3]oxazin-2(1H,3H,8H)-yl)octan-1-ol] | nanomolar | 11.7 | 1.7 | 1.7 | 2.15 | 4.9 | > 20 | negative |  |
| CC(C)=CCC/C(C)=C/CC/C(C)=C/CC[C@]1(C)CCc2c3c(c(C)c(C)c2O1)OCN(CCCCCO)C3 [Compound 17, 5-((R)-5,6,8-trimethyl-8-((3E,7E)-4,8,12-trimethyltrideca-3,7,11-trienyl)-9,10-dihydrochromeno[5,6-e][1,3]oxazin-2(1H,3H,8H)-yl)pentan-1-ol] | nanomolar | > 50 | 8.9 | 8.9 | 5.24 |  | > 20 |  | very high activities |
| CC(C)=CCC/C(C)=C/CC/C(C)=C/CC[C@]1(C)CCc2c3c(cc(C)c2O1)OCN(CCCCCCO)C3 [Compound 38, 6-((R)-6,8-dimethyl-8-((3E,7E)-4,8,12-trimethyltrideca-3,7,11-trienyl)-9,10-dihydrochromeno[5,6-e][1,3]oxazin-2(1H,3H,8H)-yl)hexan-1-ol] | nanomolar | > 5 | 2.5 | 2.5 | 1.92 | 1.5 | > 20 | negative |  |
